# Reference: patent US10793589B2, “Resorcinarene-based amphipathic compound and use thereof” (Industry-University Cooperation Foundation Hanyang …, priority 2016, dated 2020)
# Entries after “also recorded” stand apart in the source; their conditions may differ.
# What was measured:
# [1] = Critical micelle concentration by fluorescence dye diphenylhexatriene (DPH); assay type: physicochemical; conditions: DPH fluorescence
# Procedure: A method of measuring the CMC is not particularly limited and may be any method generally known in the art. For example, the CMC may be measured according to a fluorescence staining method using diphenylhexatriene (DPH).
# (§1) Specifically, critical micelle concentrations (CMCs) were measured using a fluorescence dye, diphenylhexatriene (DPH), and hydrodynamic radii (Rh) of micelles formed of each compound (1.0 wt %) were measured by a dynamic light scattering (DLS) experiment. Measured results are shown in Table 1 in comparison with values of DDM as an existing amphipathic molecule (detergent).
# [2] = Hydrodynamic radius and size distribution of micelles by dynamic light scattering (DLS); assay type: physicochemical; conditions: compound 1.0 wt %
# Procedure: A method of measuring the radius of a micelle is not particularly limited and may be any method generally known in the art. For example, the radius may be measured by a dynamic light scattering (DLS) experiment.
# as §1
# Meanwhile, size distributions of the micelles formed by RGAs and RMAs were measured using DLS.
# [3] = target: T1, uric acid-xanthine/H+ symporter (UapA) (Emericella nidulans, UniProt Q07307, G411V); assay: UapA structural/thermal stability (FSEC, CPM assay); assay type: biochemical, Aspergillus nidulans; conditions: FIG. 5 (RGAs, FSEC), FIG. 6 (RMAs, CPM assay 40° C. 150 min, CMC+0.04 or CMC+0.2 wt %)
# T1 construct: GFP; made in house; host or cells: Saccharomyces cerevisiae FGY217
# Procedure: FIGS. 5A and 5B are a set of graphs illustrating a result of measuring the thermal stability of UapA in an aqueous solution caused by RGAs or DDM via fluorescence-detection size exclusion chromatography (FSEC):
# FIGS. 6A and 6B are a set of graph illustrating a result of measuring thermal denaturation profile of UapA protein in DDM and novel RMAs (RMA-Cs and RMA-CEs) used at CMC+0.04 wt % (a) or CMC+0.2 wt % (b). Protein stability was assessed by CPM assay carried out at 40° C. for 150 min.
# An experiment was carried out to measure the structural stability of a uric acid-xanthine/H^+ symporter (UapA) isolated from Aspergillus nidulans caused by RGAs and RMAs. The structural stability of UapA was measured using a sulfhydryl-specific fluorophore, N-[4-(7-diethylamino-4-methyl-3-coumarinyl)phenyl] maleimide (CPM).
# Specifically, UapAG411V1-11 (hereinafter, referred to as “UapA”) was expressed in combination with GFP in Saccharomyces cerevisiae FGY217 strains and isolated into a sample buffer (20 mM Tris (pH 7.5), 150 mM NaCl, 0.03% DDM, and 0.6 mM xanthine) according to the method described in the paper (Mol. Membr. Biol. 2013, 30, 32-42) written by J. Leung et al. The membranes containing UapA were diluted to a final protein concentration of 2.8 mg ml^−1 in PBS (pH 7.4) supplemented with either 1% DDM or 1% RMAs or RGAs. […]
# [4] = target: T2, human β2 adrenergic receptor (β2AR) (Homo sapiens, UniProt P07550); assay: β2AR stability, [3H]-dihydroalprenolol (DHA) ligand binding assay; assay type: biochemical; conditions: for maintaining the ligand binding characteristic of the receptor compared to DDM: 0 hour, CMC+0.2 wt %, [3H]-DHA
# T2 construct: made in house
# Procedure: FIGS. 10A and 10B illustrate a result of measuring the effect of RGAs on the stability of β2AR after (a) 0 hour and (b) over time. Protein-ligand binding characteristics were measured via ligand binding assay using [^3H]-dihydroalprenolol (DHA), and the measurement was carried out by sampling a protein sample at regular intervals during 2 days of storage at room temperature.
# FIGS. 12A and 12B illustrate a result of measuring the effect of RMAs on the stability of β2AR after (a) 0 hour and (b) over time. Protein-ligand binding characteristics were measured via ligand binding assay using [^3H]-dihydroalprenolol (DHA), and the measurement was carried out by sampling a protein sample at regular intervals during 2 days of storage at room temperature.
# An experiment was carried out to measure the structural stability of a human (32 adrenergic receptor (β2AR) and a G protein-coupled receptor (GPCR) caused by RGAs and RMAs. That is, a receptor purified with DDM was diluted with a buffer solution containing only each RGA and RMA without cholesteryl hemisuccinate (CHS) or a buffer solution containing CHS and DDM. The final concentration of the compound was CMC+0.2 wt %, and the ligand binding characteristic of the receptor was measured using [^3H]-dihydroalprenolol ([^3H]-DHA) binding.
# Specifically, radioligand binding assay was carried out using the following method. β2AR was purified using 0.1% DDM according to the method described in a paper (Science, 2007, 318, 1266-1273.) written by D. M. Rosenbaum et al. and finally concentrated to about 10 mg/ml (about 200 μM). The β2AR purified with DDM was used to prepare a master binding mixture containing 10 nM [^3H]-dihydroalprenolol (DHA) supplemented with 0.5 mg/ml BSA in a 0.2% amphipathic compound (DDM, RGAs or RMAs). The receptor purified with DDM, RGAs or RMAs was incubated with 10 nM [^3H]-DHA at room temperature for 30 minutes. The mixture was loaded into a G-50 column, the flow-through was collected with 1 ml of a binding buffer (20 mM HEPES pH 7.5, 100 mM NaCl, supplemented with 0.5 mg/ml BSA and 20×CMC individual amphipathic compound, and the G-50 column was further filled with 15 ml of a scintillation fluid. Receptor-bound [^3H]-DHA was measured with a scintillation counter (Beckman). The binding capacity of [^3H]-DHA was measured and shown in a column graph. Each experiment was performed in triplicate.
# [5] = target: T2, human β2 adrenergic receptor (β2AR); assay: Size exclusion chromatography (SEC) of β2AR receptor-detergent complex; conditions: 20×CMC detergent
# Procedure: FIG. 11 illustrates a result of evaluating the size characteristic of a (32AR protein-ligand binding complex formed of RGA-C11, RGA-C13, or DDM via a size exclusion chromatography (SEC) test.
# In addition, a size exclusion chromatography (SEC) test was conducted. Specifically, β2AR purified with 0.1% DDM was loaded on a M1 Flag column in the presence of 2 mM CaCl2, and the column was washed with a DDM, RGA-C11 or RGA-C13 detergent buffer (20 mM HEPES pH 7.5, 100 mM NaCl, 0.2% individual amphipathic compound). The receptor was eluted with 20×CMC DDM, RGA-C11, or RGA-C13 with 5 mM EDTA and 0.2 mg/ml free Flag peptide. The eluate was further added to a Superdex-200 10/300 GL column (GE Healthcare) at 0.5 ml/min, and UV absorbance at 280 nm was recorded. The running buffer contained 20 mM HEPES pH 7.5, 100 mM NaCl, 20×CMC individual detergent (DDM, RGA-C11 and RGA-C13).
# [6] = target: T3, Salmonella typhimurium melibiose permease (MelB) (Salmonella typhimurium, UniProt P30878); assay: MelB extraction and solubility after 90 min incubation, SDS-PAGE and western blotting; assay type: biochemical; conditions: 55° C., 1.5 wt %
# T3 construct: made in house; host or cells: E. coli DW2 (melB and lacZY deleted), plasmid pK95AHB/WT MelBSt/CH10
# Procedure: FIGS. 9A and 9B illustrate a result of measuring the amount of a MelB protein dissolved in an aqueous solution after a MelB protein was extracted at four temperatures (0, 45, 55, and 65) using RGAs or DDM at a concentration of 1.5 wt % and then incubated at the same temperatures for 90 minutes:
# RGAs were selected, and an experiment was carried out to measure the structural stability of a Salmonella typhimurium melibiose permease (MelB) caused by RGAs. A MelB protein was extracted from a membrane using RGAs or DDM, and the amount and structure of the protein thus extracted was then analyzed by performing SDS-PAGE and western blotting. In this case, the concentration of the used amphipathic compound was 1.5 wt %. The protein was extracted at four temperatures (0, 45, 55, and 65° C.) and then incubated at the same temperatures for 90 minutes. Subsequently, two kinds of performance of the compound, that is, protein extraction efficiency and protein stability were evaluated at the same time by measuring the amount of a protein which remained dissolved in an aqueous solution. The amount of a protein which was extracted and stabilized by an individual amphipathic molecule was expressed as a relative value (%) with respect to the amount of the entire protein included in a membrane sample not treated with an amphipathic molecule.
# Specifically, a C-terminal 10-His-tagged Salmonella typhimurium melibiose permease (MelBSt) was expressed in E. coli DW2 cells (melB and lacZY) using plasmid pK95AHB/WT MelBSt/CH10. Cells were grown and membranes were prepared according to the method described in a paper (Nat. Commun. 2014, 5, 3009) written by A. S. Ethayathulla et al. A protein assay was carried out with a Micro BCA kit (Thermo Scientific, Rockford, Ill.). RGAs and DDM were evaluated to measure the stability of MelBSt according to the protocol described in a paper (Nat. Methods 2010, 7, 1003-1008) written by P. S. Chae et al. The membrane sample (final protein concentration of 10 mg/mL) containing MelBSt was incubated in a solubilization buffer containing 1.5% (w/v) DDM or RGAs (20 mM sodium phosphate, pH 7.5, 200 mM NaCl, 10% glycerol, and 20 mM melibiose) at four temperatures (0, 45, 55, and 65° C.) for 90 minutes. An insoluble material was removed by ultracentrifugation at 355,590 g at 4° C. for 45 minutes using a Beckman Optima™ MAX ultracentrifuge equipped with a TLA-100 rotor. A dissolved portion was separated by SDS-16% PAGE, and immunoblotting was then performed using a Penta-His-HRP antibody (Qiagen, Germantown, Md.). A membrane fraction containing 20 μg of protein without treatment was used to illustrate the overall MelB, and the treated samples were loaded into each well in equal volume. MelBSt was measured using the SuperSignal West Pico Chemiluminescent substrate by ImageQuant LAS 4000 Biomolecular Imager (GE Healthcare Life Sciences).
# T2 sequence (P07550 whole entry): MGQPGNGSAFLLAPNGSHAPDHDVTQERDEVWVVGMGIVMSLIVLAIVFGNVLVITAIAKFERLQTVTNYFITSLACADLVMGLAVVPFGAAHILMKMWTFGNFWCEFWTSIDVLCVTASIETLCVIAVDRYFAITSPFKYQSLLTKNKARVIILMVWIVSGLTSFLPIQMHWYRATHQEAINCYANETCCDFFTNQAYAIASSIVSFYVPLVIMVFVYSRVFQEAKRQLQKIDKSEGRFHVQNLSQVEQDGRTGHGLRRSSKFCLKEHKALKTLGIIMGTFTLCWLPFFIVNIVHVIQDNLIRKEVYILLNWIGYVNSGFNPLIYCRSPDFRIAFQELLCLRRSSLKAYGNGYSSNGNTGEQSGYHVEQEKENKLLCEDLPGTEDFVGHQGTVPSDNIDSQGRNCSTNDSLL
# T3 sequence (P30878 whole entry): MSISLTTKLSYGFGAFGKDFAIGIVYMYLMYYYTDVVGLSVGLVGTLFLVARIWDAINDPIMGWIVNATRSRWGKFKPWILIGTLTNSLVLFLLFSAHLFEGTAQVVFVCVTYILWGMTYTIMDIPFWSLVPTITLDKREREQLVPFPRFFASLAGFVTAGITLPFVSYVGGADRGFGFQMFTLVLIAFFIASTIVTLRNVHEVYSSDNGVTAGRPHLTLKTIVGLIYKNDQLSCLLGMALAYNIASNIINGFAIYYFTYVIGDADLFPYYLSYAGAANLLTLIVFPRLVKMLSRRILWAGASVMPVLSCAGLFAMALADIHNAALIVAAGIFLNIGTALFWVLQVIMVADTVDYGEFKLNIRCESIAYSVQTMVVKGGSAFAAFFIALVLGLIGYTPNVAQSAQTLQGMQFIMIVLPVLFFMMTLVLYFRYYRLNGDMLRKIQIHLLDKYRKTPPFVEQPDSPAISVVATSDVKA
# T1 sequence (Q07307 12-574 G411V): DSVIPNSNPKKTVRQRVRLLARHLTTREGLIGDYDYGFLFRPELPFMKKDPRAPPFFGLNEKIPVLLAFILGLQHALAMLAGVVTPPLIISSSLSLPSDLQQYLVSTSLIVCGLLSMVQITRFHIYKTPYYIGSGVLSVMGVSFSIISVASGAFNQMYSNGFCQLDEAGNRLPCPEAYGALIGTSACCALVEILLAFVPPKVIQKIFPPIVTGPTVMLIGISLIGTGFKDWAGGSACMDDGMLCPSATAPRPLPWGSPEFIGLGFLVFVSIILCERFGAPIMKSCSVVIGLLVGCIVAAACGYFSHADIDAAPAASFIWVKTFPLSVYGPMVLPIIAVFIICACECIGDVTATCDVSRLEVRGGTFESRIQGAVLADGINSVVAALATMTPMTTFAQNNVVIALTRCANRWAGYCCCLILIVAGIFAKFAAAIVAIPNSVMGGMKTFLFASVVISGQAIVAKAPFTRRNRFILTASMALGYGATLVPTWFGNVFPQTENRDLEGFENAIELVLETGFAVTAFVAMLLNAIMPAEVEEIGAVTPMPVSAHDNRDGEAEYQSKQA
compound,measurement,setting,value
CCCCCCCC[C@H]1c2cc(c(OCCO[C@@H]3OC(CO)[C@@H](O)[C@H](O)C3O)cc2OCCO[C@@H]2OC(CO)[C@@H](O)[C@H](O)C2O)[C@H](CCCCCCCC)c2cc(c(OCCO[C@@H]3OC(CO)[C@@H](O)[C@H](O)C3O)cc2OCCO[C@@H]2OC(CO)[C@@H](O)[C@H](O)C2O)[C@@H](CCCCCCCC)c2cc(c(OCCO[C@@H]3OC(CO)[C@@H](O)[C@H](O)C3O)cc2OCCO[C@@H]2OC(CO)[C@@H](O)[C@H](O)C2O)[C@@H](CCCCCCCC)c2cc1c(OCCO[C@@H]1OC(CO)[C@@H](O)[C@H](O)C1O)cc2OCCO[C@@H]1OC(CO)[C@@H](O)[C@H](O)C1O (stereo partly drawn) [RGA-C9],CMC,[1],~7 µM
same,CMC (wt %),[1],~0.018 wt %
same,"Rh (nm), hydrodynamic radius of micelles",[2],2.9 ± 0.1 nm
same,ability to maintain the UapA protein in a folded state compared to DDM,[3],highest effect
same,maintaining the ligand binding characteristic of the receptor compared to DDM,[4],inferior to DDM
CCCCCCCCCCCC[C@H]1c2cc(c(OCCO[C@@H]3OC(CO)[C@@H](O)[C@H](O)C3O)cc2OCCO[C@@H]2OC(CO)[C@@H](O)[C@H](O)C2O)[C@H](CCCCCCCCCCCC)c2cc(c(OCCO[C@@H]3OC(CO)[C@@H](O)[C@H](O)C3O)cc2OCCO[C@@H]2OC(CO)[C@@H](O)[C@H](O)C2O)[C@@H](CCCCCCCCCCCC)c2cc(c(OCCO[C@@H]3OC(CO)[C@@H](O)[C@H](O)C3O)cc2OCCO[C@@H]2OC(CO)[C@@H](O)[C@H](O)C2O)[C@@H](CCCCCCCCCCCC)c2cc1c(OCCO[C@@H]1OC(CO)[C@@H](O)[C@H](O)C1O)cc2OCCO[C@@H]1OC(CO)[C@@H](O)[C@H](O)C1O (stereo partly drawn) [RGA-C13],CMC (wt %),[1],~0.0056 wt %
same,size of receptor-detergent complex,[5],significantly smaller than that formed of DDM
same,"Rh (nm), hydrodynamic radius of micelles",[2],3.7 ± 0.1 nm
same,maintaining the ligand binding characteristic of the receptor compared to DDM,[4],superior to DDM
same,ability to maintain the ligand binding of the receptor over time compared to DDM,"[4]; 2 days at room temperature, early stage (0 to 12 h)",superior ability to maintain the ligand binding of the receptor compared to DDM
same,"receptor stability / ligand binding maintenance relative to DDM (fold, in words)","[4]; incubation at room temperature, early stage",enhanced by almost three times
same,MelB protein extraction efficiency and solubility,[6],maintained MelB solubility better than DDM; also recorded: higher protein extraction efficiency than DDM
